Results taken from patent US7230166B2, “Variety of four-leaf clover and a method for breeding the same” (priority 2002, dated 2007).

Tests used:
Assay type in all cases: cell-based, white clover (Trifolium repense L.)
[1] = tested on: cultivated shoots of the clover; assay: Effects of IAA/IBA and NAA on shoot growth and rooting of the cultivated shoots; settings: for Length of roots (cm) / Length of shoots (cm) / Numbers of roots/segments / Numbers of shoots/segments / Weight of shoots/segments: basic MS medium + SUCROSE 20 g/L;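 as to Length of roots (cm): Auxin doses in mg/L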;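 as to Length of shoots (cm): Auxin doses in mg/L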;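 as to Numbers of roots/segments: Auxin doses in mg/L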;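 as to Numbers of shoots/segments: Auxin doses in mg/L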;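 as to Weight of shoots/segments (g): Auxin doses in mg/L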
Description: The cultivation was carried out under the conditions of acidity of pH 5.5, 22˜25° C. and luminous intensity of 800 lux.

[2] = tested on: shoots of the white clover; assay: Effects of BAP, IAA and NAA on the shoot propagation of the clover
Description: Furthermore, in order to promote mutation and cell division of shoots of the white clover, the shoots were treated with cold water of 5° C. for 20 seconds, which in turn were transferred to a solution of Ethyl Methane Sulfonate of 0.2 μg/L for 3 seconds. Then, the shoots were washed with sterile water. […] The incubation of the shoots was carried out under the conditions of temperature of 21° C. and luminous intensity of 500 lux.

[3] = tested on: shoots of the clover; assay: Effects of the density of sucrose in the medium on the propagation and growth of shoots
Description: Meanwhile, sucrose of […] was added to the medium in order to reduce the callus formation and the transparency ratio during the cultivation of the shoots.

[4] = tested on: cut segments of the white clover; assay: Effects of Ethyl Methane Sulfonate on the mutation of the shoots; settings: for Color of leaves / Heliophilous / Mutation ratio (%) / Numbers of leaves / Numbers of stems / Shape of leaves: 3.0 sec
Text: Two hundreds of wild-type white clovers, which were native in Korea, were harvested, wherein the respective clovers had three leaves and a stem of a length of about 7 cm.
All leaves were removed from the clovers. Then, the stems of the clovers were cut at a length of about 3˜4 cm, which are transferred to a conical flask and subjected to a solution of ethyl alcohol of 70% for 30 seconds to sterilize the stems. Next, the segments of stems were washed with sterile water, which in turn were transferred to a solution of ethyl alcohol of 70% for 15 minutes to sterilize surfaces of the stem segments. Continuously, the stem segments were washed with sterile water three times.
The sterilized segments of the white clovers were cut again at a length of 2˜3 mm in a clean bench, wherein each of the cut segments included growing point. The resulting cut segments of the white clover were treated with Ethyl Methane Sulfonate in order to induce mutation.
Referring to the Table 1, shoots were respectively treated with Ethyl Methane Sulfonate of 0.1˜0.3 μg/L for 3 seconds. As the result, when the shoots were treated with Ethyl Methane Sulfonate of 0.2 μg/L, the ratio, regarding the growth of four leaves from the stem, is highest.

[5] = medium with BAP of 1.0˜2.0 mg/L
[6] = Sucrose 10 mg/L, basic MS medium + BAP 2.0 mg/L + IAA 0.5 mg/L
[7] = Sucrose 15 mg/L, basic MS medium + BAP 2.0 mg/L + IAA 0.5 mg/L
[8] = Sucrose 20 mg/L, basic MS medium + BAP 2.0 mg/L + IAA 0.5 mg/L
[9] = Sucrose 25 mg/L, basic MS medium + BAP 2.0 mg/L + IAA 0.5 mg/L
[10] = Sucrose 30 g/L, basic MS medium + BAP 2.0 mg/L + IAA 0.5 mg/L

O=C(O)Cc1cccc2ccccc12 [NAA, α-Naphthaleneacetic Acid]
Length of roots (cm) ([1]; NAA 0.5): 4.8 a cm | Length of shoots (cm) ([1]; NAA 0.5): 4.6 a cm | Numbers of roots/segments ([1]; NAA 0.5): 3.2 a | Numbers of shoots/segments ([1]; NAA 0.5): 1.0 a | Weight of shoots/segments ([1]; NAA 0.5): 3.92 g | Length of roots (cm) ([1]; NAA 1.0): 3.6 ab cm | Length of shoots (cm) ([1]; NAA 1.0): 4.8 a cm | Numbers of roots/segments ([1]; NAA 1.0): 2.5 ab | Numbers of shoots/segments ([1]; NAA 1.0): 1.1 a | Weight of shoots/segments ([1]; NAA 1.0): 4.21 g | Length of roots (cm) ([1]; NAA 2.0): 3.4 b cm | Length of shoots (cm) ([1]; NAA 2.0): 4.8 a cm | Numbers of roots/segments ([1]; NAA 2.0): 1.9 b | Weight of shoots/segments ([1]; NAA 2.0): 3.42 g | Length of roots (cm) ([1]; NAA 5.0): 3.2 b cm | Length of shoots (cm) ([1]; NAA 5.0): 4.2 a cm | Numbers of roots/segments ([1]; NAA 5.0): 1.6 b | Numbers of shoots/segments ([1]; NAA 5.0): 1.0 a | Weight of shoots/segments ([1]; NAA 5.0): 3.72 g | rooting of the shoots ([1]; NAA of 0.5˜1.0 mg/L added to the basic MS medium): induced well

c1ccc(CNc2ncnc3nc[nH]c23)cc1 [BAP, 6-Benzylaminopurine]
incubation efficiency of the shoots ([2]; in proportion to the density of the BAP): enhanced | average number of the shoots [2, 5]: more than 2.7 | transparency ratio [2, 5]: more than 42.3%

O=C(O)CCCc1c[nH]c2ccccc12 [IBA]
Length of roots (cm) ([1]; IBA 0.5): 4.9 a cm | Length of shoots (cm) ([1]; IBA 0.5): 5.1 a cm | Numbers of roots/segments ([1]; IBA 0.5): 2.2 ab | Numbers of shoots/segments ([1]; IBA 0.5): 1.4 a | Weight of shoots/segments ([1]; IBA 0.5): 3.4 g | Length of roots (cm) ([1]; IBA 1.5): 4.6 a cm | Length of shoots (cm) ([1]; IBA 1.5): 5.3 a cm | Numbers of roots/segments ([1]; IBA 1.5): 2.8 ab | Numbers of shoots/segments ([1]; IBA 1.5): 1.2 a | Weight of shoots/segments ([1]; IBA 1.5): 4.66 g | Length of roots (cm) ([1]; IBA 2.0): 5.1 a cm | Length of shoots (cm) ([1]; IBA 2.0): 5.1 a cm | Numbers of roots/segments ([1]; IBA 2.0): 3.4 a | Numbers of shoots/segments ([1]; IBA 2.0): 1.0 a | Weight of shoots/segments ([1]; IBA 2.0): 4.21 g | Length of roots (cm) ([1]; IBA 5.0): 3.1 b cm | Length of shoots (cm) ([1]; IBA 5.0): 4.7 a cm | Numbers of roots/segments ([1]; IBA 5.0): 1.2 b | Numbers of shoots/segments ([1]; IBA 5.0): 1 | Weight of shoots/segments ([1]; IBA 5.0): 3.33 g | rooting of the shoots ([1]; IBA of 0.5 mg/L added to the basic MS medium): induced well

OC[C@H]1O[C@@](CO)(O[C@H]2O[C@H](CO)[C@@H](O)[C@H](O)[C@H]2O)[C@@H](O)[C@@H]1O [Sucrose, sucrose]
Length of shoots (cm) [3, 6]: 3.2 a cm | Numbers of shoots/segments [3, 6]: 3.2 a^a | Weight of shoots/segments (g) [3, 6]: 1.66 a g | transparency ratio (%) [3, 6]: 3.46 b % | Length of shoots (cm) [3, 7]: 4.1 a cm | Numbers of shoots/segments [3, 7]: 3.9 a | Weight of shoots/segments (g) [3, 7]: 2.13 ab g | transparency ratio (%) [3, 7]: 40.1 a % | Length of shoots (cm) [3, 8]: 4.8 a cm | Numbers of shoots/segments [3, 8]: 4.0 a | Weight of shoots/segments (g) [3, 8]: 2.17 ab g | transparency ratio (%) [3, 8]: 46.7 a % | Callus formation [3, 9]: ++ | Length of shoots (cm) [3, 9]: 3.9 a cm | Numbers of shoots/segments [3, 9]: 3.6 a | Weight of shoots/segments (g) [3, 9]: 2.43 ab g | transparency ratio (%) [3, 9]: 42.4 a % | Callus formation [3, 10]: +++ | Length of shoots (cm) [3, 10]: 4.4 a cm | Numbers of shoots/segments [3, 10]: 3.4 a | Weight of shoots/segments (g) [3, 10]: 2.73 a g | transparency ratio (%) [3, 10]: 50.7 a % | Callus formation ([3]; sucrose of 15˜20 g/L in the medium): callus was generated only

CCOS(C)(=O)=O [EMS, Ethyl Methane Sulfonate]
Color of leaves ([4]; EMS 0.1 μg/L): Light | Heliophilous ([4]; EMS 0.1 μg/L): 0.3c | Mutation ratio (%) ([4]; EMS 0.1 μg/L): 12c % | Numbers of leaves ([4]; EMS 0.1 μg/L): 4c | Numbers of stems ([4]; EMS 0.1 μg/L): 6c | Shape of leaves ([4]; EMS 0.1 μg/L): Heart | Color of leaves ([4]; EMS 0.2 μg/L): Light | Heliophilous ([4]; EMS 0.2 μg/L): 1.5a | Mutation ratio (%) ([4]; EMS 0.2 μg/L): 25a % | Numbers of leaves ([4]; EMS 0.2 μg/L): 4a | Numbers of stems ([4]; EMS 0.2 μg/L): 10b | Shape of leaves ([4]; EMS 0.2 μg/L): Heart | Color of leaves ([4]; EMS 0.3 μg/L): Light | Heliophilous ([4]; EMS 0.3 μg/L): 2.5b | Mutation ratio (%) ([4]; EMS 0.3 μg/L): 18b % | Numbers of leaves ([4]; EMS 0.3 μg/L): 4b | Numbers of stems ([4]; EMS 0.3 μg/L): 8b | Shape of leaves ([4]; EMS 0.3 μg/L): Heart | ratio regarding the growth of four leaves from the stem ([4]; Ethyl Methane Sulfonate of 0.2 μg/L for 3 seconds, among 0.1˜0.3 μg/L): highest
